Laboratory results published in patent US20100168210A1, “T-Cell Cytokine-Inducing Surface Molecules and Methods of Use” (priority 2007, published 2010).

What was measured:
[1] = tested on: T-cell-mediated TNFα production from human Mφ; assay: T cell membrane-Mφ cell contact bioassay (activated T-cell mediated cytokine production); type: cell-based; details: anti-CD3/anti-CD28 activated T-cell membranes; CD14+ Mφ; FIG. 14
Description: Primary T cells or H9 cells were washed with cold PBS and cell pellets were resuspended in freshly made 1% paraformaldehyde at 5×10^6 cells/ml. Cells were fixed on ice for 2 hours, and then washed with 20× volume of cold PBS three times. Following the third wash, the cells were kept in PBS at 4° C. overnight to allow diffusion of paraformaldehyde. Cells were centrifuged and washed one more time. The fixed T cells were resuspended in medium at 1×10^7 cells/ml and dispensed into a 96 well U bottom plate at about 1×10^6/ml THP-1 cells 100 μl per well. Primary T cells or H9 cells (100 μl per well) were added at 8×, 4×, and 2×10^6 cells/ml. The plates were incubated at 37° C., in humidified 5% CO2 for 48 hours. Plates were centrifuged at 1,500 rpm for 5 minutes and supernatant (120 μl) transferred into a fresh plate. The supernatant was stored at −20° C. until used. […]
Using the T cell membrane-Mφ cell contact bioassay, small molecule antagonists were identified that differentially block anti-CD3/anti-CD28 activated T-cell mediated—but not LPS stimulated—TNFα and IL-1β production from peripheral blood resident CD14^+ Mφ. Several kinase inhibitors were selected and assessed for the effects of these compounds in blocking TNFα and/or IL-1β production using a validated T-cell membrane-Mφ contact bioassay. […]

[2] = tested on: LPS-stimulated TNFα and IL-1β production; assay: LPS-stimulated Mφ cytokine production; type: cell-based, human; details: FIG. 14
Text: Using the T cell membrane-Mφ cell contact bioassay, small molecule antagonists were identified that differentially block anti-CD3/anti-CD28 activated T-cell mediated—but not LPS stimulated—TNFα and IL-1β production from peripheral blood resident CD14^+ Mφ. Several kinase inhibitors were selected and assessed for the effects of these compounds in blocking TNFα and/or IL-1β production using a validated T-cell membrane-Mφ contact bioassay. […] Therefore, the activated T-cell membrane-Mt contact bioassay using human T-cells and Mφ can be used to establish high-throughput screens with recombinant TCISM (once identified and cloned) to identify orally-active, small molecule antagonists that specifically target adaptive, but not LPS-mediated, innate immunity. Some orally active, small molecule TNFα and/or IL-1β inhibitors which interfere specifically with T-cell mediated Mφ activation, leading to enhanced cytokine production but not LPS-mediated Mφ cytokine release, have a favorable therapeutic/side effect profile in T-cell mediated skin diseases such as Ps.

[3] = tested on: Murine Collagen-Induced Arthritis; assay: Murine Collagen-Induced Arthritis study; type: in vivo, mice; details: 50 mg/kg P.O. once per day beginning at day +1; day +13 after induction; FIG. 18
Description: Mice were immunized with CII+CFA on day 0 and boosted on day 21 with CII+IFA. A total of 10 DBA female mice per group were used. Drugs were administered as shown and started on the first day of initial signs of paw swelling/arthritis. Mean arthritis score (see data below) was assessed according to the procedure of Bendele et al., Arthritis & Rheumatism, 2000, 43(12), pp 2648-2659. […] Mice were treated 8 days after showing signs of collagen induced arthritis.
FIG. 18 is a joint histopathology of representative mice. In FIG. 18, panel A denotes a knee joint obtained from a DBA mouse with collagen-induced arthritis treated with an isotype-control rat-anti-mouse MAb (negative control) showing that […] over the course of this control treatment.

C[S+]([O-])c1ccccc1-n1cnc(-c2ccc(F)cc2)c1-c1ccncc1 (stereo not drawn) [Compound C]
Inhibition of T-cell-mediated TNFα production from human Mφ [1]: completely inhibit
Effect on LPS-stimulated TNFα and IL-1β production [2]: without having any significant effect
Joint histopathology (knee joint inflammation) [3]: reduced inflammation
